From patent US8592436B2, “Arylamide pyrimidone derivatives” (Sanofi, priority 2007, dated 2013)

How the values were obtained:
[1] = biological target: GSK3β (Homo sapiens, UniProt P49841); test: Inhibitory activity against GSK3β (33P-ATP phosphorylation of prephosphorylated GS1 peptide, two protocols); format: biochemical; settings: protocol used not stated
Method: Two different protocols can be used. In a first protocol: 7.5 μM of prephosphorylated GS1 peptide and 10 μM ATP (containing 300,000 cpm of ^33P-ATP) were incubated in 25 mM Tris-HCl, pH 7.5, 0.6 mM DTT, 6 mM MgCl2, 0.6 mM EGTA, 0.05 mg/ml BSA buffer for 1 hour at room temperature in the presence of GSK3beta (total reaction volume: 100 microliters). In a second protocol: 4.1 μM of prephosphorylated GS1 peptide and 42 μM ATP (containing 260,000 cpm ^33P-ATP) were incubated in 80 mM Mes-NaOH, pH 6.5, 1 mM Mg acetate, 0.5 mM EGTA, 5 mM 2-mercaptoethanol, 0.02% Tween 20, 10% glycerol buffer for 2 hours at room temperature in the presence of GSK3beta. Inhibitors were solubilized in DMSO (final solvent concentration in the reaction medium, 1%). The reaction was stopped with 100 microliters of a solution made of 25 g polyphosphoric acid (85% P2O5), 126 ml 85% H3PO4, H2O to 500 ml and then diluted to 1:100 before use. An aliquot of the reaction mixture was then transferred to Whatman P81 cation exchange filters and rinsed with the solution described above. Incorporated ^33P radioactivity was determined by liquid scintillation spectrometry. The phosphorylated GS-1 peptide had the following sequence: NH2-[…](P)EDEE-COOH. SEQ ID NO: 1 (Woodgett, J. R. (1989) Analytical Biochemistry 180, 237-241.

GSK3β, sequence (P49841 whole entry): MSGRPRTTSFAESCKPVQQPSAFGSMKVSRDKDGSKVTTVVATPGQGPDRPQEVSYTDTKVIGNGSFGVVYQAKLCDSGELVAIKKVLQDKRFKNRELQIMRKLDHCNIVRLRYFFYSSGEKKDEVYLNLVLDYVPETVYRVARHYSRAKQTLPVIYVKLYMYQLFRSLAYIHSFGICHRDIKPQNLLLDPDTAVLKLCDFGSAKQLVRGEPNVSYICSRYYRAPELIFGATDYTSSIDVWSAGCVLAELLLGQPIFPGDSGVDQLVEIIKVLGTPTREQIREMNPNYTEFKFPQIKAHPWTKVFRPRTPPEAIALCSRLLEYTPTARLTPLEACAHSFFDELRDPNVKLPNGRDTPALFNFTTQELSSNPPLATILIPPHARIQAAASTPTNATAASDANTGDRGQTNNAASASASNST

## COc1ccccc1C(=O)NCc1nc(-c2ccncn2)cc(=O)n1C [compound 1, 2-Methoxy-N-(1-methyl-6-oxo-1,6-dihydro-[4,4′]bipyrimidinyl-2-ylmethyl)-benzamide]
other
  melting point: 239 to 241 °C
[1]
  IC50: 23 nM
